Results taken from patent US8486381B2, “Methods of modulating intestinal fluid balance” (Amgen Inc., priority 2005, dated 2013).

System: cyclic GMP
Assay: Secretagogue-stimulated cyclic GMP accumulation in colonic crypt cell suspensions
Type: cell-based

Compound: [Ca+2] [Ca^2+]
- Effect on Guanylin or STa induced cyclic GMP production: attenuates
